Measured values from patent US20240059673A1, “SUBSTITUTED INDOLE COMPOUNDS” (Gilead Sciences, Inc., priority 2020, published 2024).
Where two headings read alike, the source gives them in different places.

Tests used:
[1] = molecular target: T1, TLR7 (Homo sapiens, UniProt Q9NYK1); experiment: Human PBMC cell-based assay, TLR7 agonist stimulation; conditions: human PBMCs, read-out: TLR-7 EC50
T1 construct: lymphocytes, monocytes and dendritic cells that express TLR7, TLR8 and TLR9; endogenous in cells; host or cells: cryopreserved human PBMCs from healthy donors
T1 sequence (Q9NYK1 27-1049): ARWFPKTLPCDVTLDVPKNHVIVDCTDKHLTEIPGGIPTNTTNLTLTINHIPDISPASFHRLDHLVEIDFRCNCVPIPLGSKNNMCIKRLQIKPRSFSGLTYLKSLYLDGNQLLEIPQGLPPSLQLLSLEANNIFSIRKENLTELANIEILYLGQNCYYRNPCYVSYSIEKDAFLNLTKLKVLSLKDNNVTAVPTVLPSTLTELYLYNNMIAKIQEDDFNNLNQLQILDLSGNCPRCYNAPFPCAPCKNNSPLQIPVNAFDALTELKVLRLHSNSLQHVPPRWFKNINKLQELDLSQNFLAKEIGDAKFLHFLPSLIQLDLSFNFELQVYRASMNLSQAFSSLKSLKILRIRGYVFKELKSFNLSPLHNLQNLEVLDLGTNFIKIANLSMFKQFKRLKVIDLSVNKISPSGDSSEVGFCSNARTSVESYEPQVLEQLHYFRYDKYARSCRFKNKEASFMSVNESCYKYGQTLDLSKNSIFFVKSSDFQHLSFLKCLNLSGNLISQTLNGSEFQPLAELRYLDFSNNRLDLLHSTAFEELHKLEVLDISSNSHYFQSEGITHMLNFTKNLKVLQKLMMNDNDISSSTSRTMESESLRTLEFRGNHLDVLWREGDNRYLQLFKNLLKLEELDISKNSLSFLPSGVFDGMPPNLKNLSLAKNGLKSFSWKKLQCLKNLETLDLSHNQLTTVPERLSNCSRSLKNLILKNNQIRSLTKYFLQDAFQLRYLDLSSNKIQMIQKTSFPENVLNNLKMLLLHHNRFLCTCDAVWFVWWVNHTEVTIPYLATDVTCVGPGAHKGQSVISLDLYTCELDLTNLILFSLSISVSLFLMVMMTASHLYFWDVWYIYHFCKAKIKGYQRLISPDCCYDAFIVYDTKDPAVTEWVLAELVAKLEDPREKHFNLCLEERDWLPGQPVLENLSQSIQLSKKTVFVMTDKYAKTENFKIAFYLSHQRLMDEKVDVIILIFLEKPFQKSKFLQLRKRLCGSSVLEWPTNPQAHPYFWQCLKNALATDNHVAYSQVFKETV
Description: (§1) Human Peripheral Blood Mononuclear Cell (PBMC) Cell-Based Assay
(§2) Human peripheral blood mononuclear cells (PBMCs) consist of lymphocytes, monocytes and dendritic cells that express TLR7, TLR8 and TLR9. These cells respond to TLR7, TLR8 and TLR9 ligand stimulation and produce cytokines and chemokines in vitro and in vivo. Human PBMCs are therefore suitable to be used in a cell-based assay to assess the in vitro potency of a TLR 7, 8, and/or 9 antagonist. The result is expected to be more translatable to the pharmacodynamics response in vivo than cell line-based assays.
(§3) Cryopreserved human PBMCs from healthy donors were thawed and resuspended in RPMI-1640 media with L-glutamine (Corning) supplemented with 10% Fetal Bovine Serum (Hyclone) and 1× Penicillin-Streptomycin (Corning). After counting, the cell density was adjusted to 2 million cells/ml and incubated for 1 hour at 37° C., 5% CO2 for recovery. Following the recovery, the cells were plated by adding 50p per well (100,000 cells) to 384-well cell culture plates (Greiner) containing 250 nl of test antagonists in 100% DMSO per well, in a 10 points dose response in quadruplicates. PBMCs were incubated in the presence of test antagonists for one hour at 37° C., 5% CO2 before being stimulated with a TLR7 or TLR9 agonist. GS-986 (Gilead Sciences) was used as the TLR7 agonist at a final concentration of 400 nM. ODN-2216 (InvivoGen) was used as the TLR9 agonist at a final concentration of 3μM. PBMCs were incubated in the presence of the test antagonist and the TLR7 (or TLR9) agonist for an additional 6 hours at 37° C., 5% CO2. At the end of the incubation, the cell culture plates were centrifuged at 500 g for 5 min, and the cell culture supernatant was collected. The level of cytokines (IL-6 and IFNα) in the supernatant was measured by electrochemiluminescence immunoassays (Mesoscale Discovery) following manufacturer's recommended protocols. The level of cytokine measured was plotted against the test antagonist concentration and fitted to a sigmoidal function to determine the EC50, which are shown below in Table 2.

[2] = molecular target: T2, TLR9 (Homo sapiens, UniProt Q9NR96); experiment: Human PBMC cell-based assay, TLR9 agonist stimulation; conditions: human PBMCs, read-out: TLR-9 EC50
T2 construct: lymphocytes, monocytes and dendritic cells that express TLR7, TLR8 and TLR9; endogenous in cells; host or cells: cryopreserved human PBMCs from healthy donors
T2 sequence (Q9NR96 26-1032): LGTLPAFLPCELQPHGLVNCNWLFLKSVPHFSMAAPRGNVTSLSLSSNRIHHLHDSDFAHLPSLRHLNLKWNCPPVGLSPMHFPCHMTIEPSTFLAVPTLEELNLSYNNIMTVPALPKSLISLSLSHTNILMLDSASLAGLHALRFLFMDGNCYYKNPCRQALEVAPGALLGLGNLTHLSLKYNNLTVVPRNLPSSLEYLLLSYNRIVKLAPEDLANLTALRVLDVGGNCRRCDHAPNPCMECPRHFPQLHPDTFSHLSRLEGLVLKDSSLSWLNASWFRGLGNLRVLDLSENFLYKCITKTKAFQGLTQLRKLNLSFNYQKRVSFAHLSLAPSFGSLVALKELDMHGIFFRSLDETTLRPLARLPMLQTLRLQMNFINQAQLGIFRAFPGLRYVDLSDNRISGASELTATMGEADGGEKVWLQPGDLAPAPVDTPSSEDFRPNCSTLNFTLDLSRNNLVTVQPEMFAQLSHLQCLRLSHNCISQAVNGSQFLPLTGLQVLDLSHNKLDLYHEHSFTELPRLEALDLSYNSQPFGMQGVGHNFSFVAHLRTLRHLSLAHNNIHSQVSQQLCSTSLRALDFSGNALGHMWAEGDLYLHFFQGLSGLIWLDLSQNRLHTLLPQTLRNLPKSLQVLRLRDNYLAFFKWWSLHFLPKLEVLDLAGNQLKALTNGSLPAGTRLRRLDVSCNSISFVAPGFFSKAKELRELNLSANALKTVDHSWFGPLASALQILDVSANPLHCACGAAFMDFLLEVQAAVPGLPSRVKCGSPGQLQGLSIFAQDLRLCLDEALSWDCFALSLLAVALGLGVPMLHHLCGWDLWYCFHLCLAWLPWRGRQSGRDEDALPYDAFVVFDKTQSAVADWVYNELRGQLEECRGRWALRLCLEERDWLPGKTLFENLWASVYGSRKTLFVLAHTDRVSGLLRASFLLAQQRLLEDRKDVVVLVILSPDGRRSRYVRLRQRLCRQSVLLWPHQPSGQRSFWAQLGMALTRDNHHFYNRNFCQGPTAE
Description: as §1, §2, §3

[3] = TLR7 agonist GS-986 400 nM, 6 hours, cytokines (IL-6 and IFNα) in supernatant, Table 2
[4] = TLR9 agonist ODN-2216 3 μM, 6 hours, cytokines (IL-6 and IFNα) in supernatant, Table 2
[5] = same protocol as Example A, Table 3 comparison

Row | Structure (SMILES) | EC50 [1, 3] [nM] | EC50 [2, 4] [nM] | EC50 [1, 5] [nM] | EC50 [2, 5] [nM]
1 | Cc1cc(-c2ccc3c(C)c(-c4cnc(N5CCNCC5)nc4)[nH]c3c2)cc(C)n1 [Example 1, 6-(2,6-dimethylpyridin-4-yl)-3-methyl-2-(2-(piperazin-1-yl)pyrimidin-5-yl)-1H-indole] | 7.3 | 34.6 |  | 
2 | Cc1c(-c2ccc(N3CCNCC3)nc2)[nH]c2cc(-c3ccc(C#N)c4ncccc34)ccc12 [Example 7] | 0.5 | 508 |  | 
3 | Cc1c(-c2ccc(N3CCNCC3)nc2)[nH]c2cc(-c3cc(C)c4ncnn4c3)ccc12 [Example 4] | 1.4 | 322 |  | 
4 | Cc1cc(-c2ccc3c(C)c(-c4ccc(N5CCNCC5)nc4)[nH]c3c2)cc(C)n1 [Example 2, 6-(2,6-dimethylpyridin-4-yl)-3-methyl-2-(6-(piperazin-1-yl)pyridin-3-yl)-1H-indole] | 6.8 | 33.2 |  | 

Other lines, results leading:

Row | EC50 [1, 3] [nM] | EC50 [2, 4] [nM] | EC50 [1, 5] [nM] | EC50 [2, 5] [nM] | Structure (SMILES)
5 | 0.5 | 305 |  |  | CCc1c(-c2ccc(N3CCNCC3)nc2)[nH]c2cc(-c3cc(C)c4ncnn4c3)ccc12 [Example 23]
6 |  |  | 0.5 | 716 | Cc1cc(-c2[nH]c3ccc(-c4ccc(N5CCNCC5)nc4)cc3c2C(C)C)cn2ncnc12 [Example B, reference compound]
7 |  |  | 3.9 | 263 | Cc1cc(-c2[nH]c3ccc(-c4ccc(N5CCNCC5)nc4)cc3c2C(C)C)cc(C)n1 [Example A, reference compound]
